Measured values reported in PubChem BioAssay (NCI).
“And” between values parts separate entries of the source, which are not always exact repeats. Equal entries are not always repeated.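 Tested at 5 concentrations; 48 h exposure; 96-well plates; endpoints linearly interpolated, else capped at highest concentration. Here, GI50 denotes the concentration required for 50% inhibition of growth. TGI marks complete inhibition of growth.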

Assays:
Test in all cases: inhibition of tumour cell growth, NCI panel, 48 h
A498 renal = system: A498 renal
CCRF-CEM leukemia = system: CCRF-CEM leukemia
DU-145 prostate = system: DU-145 prostate
HCC-2998 colon = system: HCC-2998 colon
MCF7 breast = system: MCF7 breast
NCI/ADR-RES ovarian = system: NCI/ADR-RES ovarian
SF-268 CNS = system: SF-268 CNS
SK-MEL-5 melanoma = system: SK-MEL-5 melanoma
SNB-75 CNS = system: SNB-75 CNS
U251 CNS = system: U251 CNS

SMILES	GI50 (A498 renal)	TGI (A498 renal)	GI50 (CCRF-CEM leukemia)	TGI (CCRF-CEM leukemia)	GI50 (DU-145 prostate)	TGI (DU-145 prostate) [µM]	GI50 (HCC-2998 colon)	TGI (HCC-2998 colon)	GI50 (MCF7 breast)	TGI (MCF7 breast)	GI50 (NCI/ADR-RES ovarian)	TGI (NCI/ADR-RES ovarian)	GI50 (SF-268 CNS)	TGI (SF-268 CNS)	GI50 (SK-MEL-5 melanoma)	TGI (SK-MEL-5 melanoma)	GI50 (SNB-75 CNS)	TGI (SNB-75 CNS)	GI50 (U251 CNS)	TGI (U251 CNS)
COc1ccc2c(c1)C(=O)/C(=C/c1cccc(OCC(=O)c3ccccc3)c1)O2	17.3 µM	31 µM	0.81 µM	2.42 µM	3.9 µM	13.7	1.74 µM	3.16 µM	4.2 µM	33.7 µM	8.9 µM	26.4 µM	4.25 µM	16.6 µM	14.3 µM	28.1 µM	10.7 µM	22.9 µM	7.97 µM	20.8 µM
Cc1ccc(S(=O)(=O)N=Nc2c(O)[nH]c3cc(O)c(C(=O)O)cc23)cc1		> 100 µM		> 100 µM		> 100		> 100 µM		> 100 µM		> 100 µM		> 100 µM		> 100 µM		> 100 µM		> 100 µM
CNC(=O)OCc1nc(SSC(C)(C)C)n(C)c1COC(=O)NC		20.4 µM		4.54 µM		33.3		22.4 µM		15.5 µM		20.3 µM		16.7 µM		16.5 µM		22.4 µM		25.6 µM
Cc1cn(-c2cc(NC(=O)c3cccc(C#Cc4cccc5[nH]nc(N)c45)c3)cc(C(F)(F)F)c2)cn1	4.09 µM	82.4 µM	4.88 µM	> 100 µM	10.3 µM	40.7	3.17 µM	> 100 µM	3.6 µM	> 100 µM	13.5 µM	> 100 µM	4.81 µM	> 100 µM	4.66 µM	21.7 µM	2.19 µM	9.02 µM	5.15 µM	20.3 µM
Cc1ccc(C)c(NC(=O)CC2Sc3ccccc3NC2=O)c1 (configuration not stated)	15.1 µM and 34 µM	23.7 µM and 60.9 µM		> 100 µM		> 100	19 µM and 61.9 µM	34.8 µM and > 100 µM		> 100 µM		> 74.3 µM		26.1 µM and 74.2 µM	30.3 µM and 91.6 µM	43.2 µM and > 100 µM		18.8 µM and 29.8 µM		25.4 µM and 52.2 µM
CCN(CC)CCCC(CCl)Nc1ccnc2cc(Cl)ccc12 (configuration not stated)	24.2 µM and 22 µM	64.3 µM and 51.1 µM	13.7 µM and 16.9 µM	39.7 µM and 51.5 µM	49.6 µM and 47.1 µM	> 100	11.9 µM	27.8 µM	23.9 µM and 27.9 µM	75.2 µM and > 87.2 µM	25.2 µM and 23.1 µM	57.3 µM and 67.7 µM	17.1 µM and 21.6 µM	49.8 µM and 97 µM	10.3 µM and 13 µM	23.5 µM and 28.6 µM	26.1 µM and 29.5 µM	59.2 µM and > 73.6 µM	23.4 µM and > 50 µM	69.7 µM and > 100 µM
CC1(C)N=C(N)N=C(N)N1c1ccc(CCC(=O)Nc2ccc(S(=O)(=O)F)cc2)c(Cl)c1	61.9 µM	> 100 µM	0.522 µM	> 100 µM	0.593 µM	> 100	0.997 µM	> 100 µM	0.515 µM	> 100 µM	> 100 µM	> 100 µM	0.507 µM	> 100 µM	0.591 µM	> 100 µM	9.75 µM	> 100 µM	0.498 µM	> 100 µM
CS(=O)(=O)CCNCc1coc(-c2ccc3ncnc(Nc4ccc(OCc5ccccc5)cc4)c3c2)c1	1.49 µM	6.25 µM	4.92 µM	14.5 µM	3.75 µM	> 25	4.16 µM	7.91 µM	3.77 µM	12.3 µM	9.47 µM	> 25 µM	3.35 µM	7.5 µM	3.27 µM	6.46 µM	3.92 µM	10 µM	4.72 µM	> 14.2 µM
COC(=O)c1ccc2[nH]c(O)c(C(=Nc3ccc(N(C)C(=O)CN4CCN(C)CC4)cc3)c3ccc4c(c3)OCO4)c2c1	0.703 µM	2.18 µM	0.388 µM	6.25 µM	1.03 µM	6.06	1 µM	2.69 µM	0.327 µM	1.8 µM	10.7 µM	34 µM	0.929 µM	3.86 µM	0.878 µM	2.17 µM	0.0752 µM	1.65 µM	0.884 µM	2.5 µM
O=C(/C=C/c1ccccc1)Nc1ncc(Cc2ccccc2Cl)s1	0.176 µM	0.68 µM	0.36 µM	> 100 µM	0.41 µM	> 100	0.361 µM	> 100 µM	0.311 µM	> 100 µM	0.325 µM	> 100 µM	1.8 µM	> 100 µM	0.341 µM		0.219 µM	2.16 µM	0.397 µM	> 100 µM
C#CC1(O)C(COP(=O)(O)OCC(COP(=O)(O)OCC2OC(n3cc(F)c(=O)[nH]c3=O)CC2O)OCCCCCCCCCCCCCCCCCC)OC(n2ccc(N)nc2=O)C1O (configuration not stated)	0.421 µM	12.1 µM	0.217 µM	> 39.7 µM	0.106 µM	> 71.9	0.0752 µM	1.26 µM	< 0.01 µM	> 32 µM	0.147 µM	> 40.4 µM	0.102 µM	9.45 µM	0.275 µM	9.29 µM	0.713 µM	> 55.3 µM	0.135 µM	> 100 µM
CCOc1cccc(/C=N/NC(=O)c2cccc(Nc3ccnc(C(F)(F)F)c3)c2)c1O	15 µM	> 76.9 µM	0.18 µM	> 100 µM	1.1 µM	> 47.3	1.45 µM	> 100 µM	0.945 µM	21.1 µM	3.02 µM	27.8 µM	0.873 µM	> 45.3 µM	0.676 µM	7.84 µM	11.2 µM	39.2 µM	0.886 µM	> 47.1 µM
O=C(NC(=O)c1c(F)cccc1F)Nc1cccc(Oc2ncc(Cl)cn2)c1		> 100 µM		> 100 µM		> 100		> 27.3 µM		> 100 µM		> 100 µM		77.3 µM		> 100 µM		60.3 µM		> 83.6 µM
